Entries after “also recorded” stand apart in the source; their conditions may differ. Where no end group is shown, it is not given here.
Columns and labels:
RSV = assay: Infectivity inhibition by natural and synthetic RIP, RSV in HEp2; type: cell-based, respiratory syncytial virus; conditions: 10 μg/ml; for Log TCID/50: six days
Method: (§1) Infectivity Inhibition of RNA Viruses by Synthetic RIP: For comparison, the natural and the synthetic RIPs were tested in cell cultures infected with different RNA viruses. The cell line MA 104 was used for infecting rotavirus SA 11 strain. HEp2 cells were used for infecting RSV and PIV3 viruses. The cells were infected in serial dilutions from 10^−2 to 10^−8; three wells were used for each dilution. After absorption of the virus, the cultures were divided into three groups. Group one received medium containing PBS as a positive control, group two received medium containing 10 μg/ml of natural RIP, and for the remaining group the medium was incorporated with 10 μg/ml synthetic RIP. The tests were read after six days and TCID/50 were calculated from CPE.
The approved drug ribovirin was tested for RSV virus in HEp2 cells at 10 μg/ml concentration. […] Synthetic RIP should be more inhibitory by increasing the concentration.

rotavirus strain SA 11 = assay: Biological activity of trypsin fragments and synthetic versions, MA104 cells infected with rotavirus; type: cell-based; conditions: tested at 20, 10, 5, 2.5, and 1.0 μg/ml
Method: Biological Activity of Fragments: Initially, the inhibitory activity of the fragments was tested on African green monkey kidney cells MA104 infected with rotavirus strain SA 11. Dulbecco Modified Eagle's Medium (DMEM) containing 10% newborn calf serum (NBCS), L-glutamine and the antibiotics penicillin and streptomycin was used to grow MA 104 and HEp2 cells into monolayers after being monodispersed with a mixture of trypsin/EDTA. The same medium without serum, containing 1 μg/ml trypsin, designated as “special medium,” was used after infecting MA 104 cells with SA 11 virus including the controls. Initially, each fraction was tested on monolayers of MA 104 cells grown in 48 well plates and infected at 10^−2 dilution of SA 11 virus. Before infecting, MA 104 cells were washed with serum free medium. The virus was allowed to absorb for 1 hour at 37° C. in a humid CO2 incubator. After absorption, 0.9 ml of medium was added to each well. Each fraction was tested at the concentration of 20, 10, 5, 2.5, and 1.0 μg/ml. Cells infected with virus received PBS to serve as positive controls, for virus CPE. The tests were read after six days.
The sequencing and synthesis was contracted out to the Protein Core Laboratory of Baylor College of Medicine, Houston, Tex.

PIV3 = assay: Infectivity inhibition by natural and synthetic RIP, PIV3 in HEp2; type: cell-based, human parainfluenza type 3; conditions: 10 μg/ml
Method: as §1

rotavirus SA 11 strain = assay: Infectivity inhibition by natural and synthetic RIP, rotavirus in MA 104; type: cell-based; conditions: 10 μg/ml; for Log TCID/50: six days
Method: as §1

Question: For `NC(=O)c1ncn([C@@H]2O[C@H](CO)[C@@H](O)[C@H]2O)n1` [ribovirin, reference compound], which “Log TCID/50” value (RSV) is on record?
Answer: 5.4 Log TCID/50

Question: For “A K A G S (AKAGS; SYNTHESIZED. CORRESPONDS TO POSITIONS 1-5 OF SEQ. ID. NO. 2) [SEQ. ID. NO.: 5, synthetic version, five amino acids]”, which “antiviral activity (inhibition of rotavirus) of fragment and synthetic versions” value (rotavirus strain SA 11) is on record?
Answer: good results

Question: With “A K A G S D N T K G G V Y P M (ALAGSDNTKGGVYPM; SYNTHESIZED. CORRESPONDS TO POSITIONS 1-15 OF SEQ. ID. NO. 2) [SEQ. ID. NO.: 3, synthetic version, 15 amino acids]” as the compound, how does the “antiviral activity (inhibition of rotavirus) of fragment and synthetic versions” value (rotavirus strain SA 11) read?
Answer: effective; also recorded: good results

Question: For AKAGSDNTKG [synthetic RIP], which “Log Inhibition of infectivity” value (PIV3) is on record?
Answer: 2.0 Log

Question: What about the “Log TCID/50” value (PIV3; six days) of the same compound?
Answer: 5.8 Log TCID/50

Question: What about the “Log Inhibition of infectivity” value (RSV) of the same compound?
Answer: 1.7 Log

Question: What about the “Log TCID/50” value (RSV) of the same compound?
Answer: 5.8 Log TCID/50

Question: And the “Log TCID/50” value (RSV; listed as Syn RIP)?
Answer: 4.5 Log TCID/50

Question: What about the “Log Inhibition of infectivity” value (rotavirus SA 11 strain) of the same compound?
Answer: 1.9 Log

Question: And the “Log TCID/50” value (rotavirus SA 11 strain)?
Answer: 4.5 Log TCID/50

Question: What about the “Log TCID/50” value (rotavirus SA 11 strain; listed as Syn RIP) of the same compound?
Answer: 4.3 Log TCID/50

Question: And the “antiviral activity (inhibition of rotavirus) of fragment and synthetic versions” value (rotavirus strain SA 11; listed as SEQ. ID. NO.: 4)?
Answer: most active domain; also recorded: good results

Question: And the “antiviral activity (inhibition of rotavirus) of fragment and synthetic versions” value (rotavirus strain SA 11; listed as SEQ. ID. No.: 4)?
Answer: the most inhibition

Question: What does the source list for AKAGSDNTKGGVYPMFGM [SEQ ID. NO.: 2]?
Answer: antiviral activity (inhibition of rotavirus) of fragment and synthetic versions (rotavirus strain SA 11): most active fragment; antiviral activity (inhibition of rotavirus) of fragment and synthetic versions (rotavirus strain SA 11; listed as SEQ. ID. NO.: 2): effective; also recorded: good results

— patent publication US6924353B2, “Inhibitors for RNA viruses” (priority 2003, dated 2005)
